Measured values reported in publication PMC12040169 (PLOS Biology, 2025).

assay: in vitro; conditions: human, hela cells, % viability

In order of rising viability at 28.5 h, 10 µM:
1. Cc1ccc2cc(CNc3ccc4c(c3)-c3ccccc3S(=O)(=O)N4)c(=O)[nH]c2c1 [CBK286163]  70.6%
2. Clc1cccc(Nc2nc(Br)cn3ccnc23)c1 [CBK066260]  80.6%
3. Cc1nccn1CC1CCCN(Cc2nc3ccccc3[nH]2)C1 (stereo not drawn) [CBK281619]  83.3%
4. c1ccc(Nc2nccc(C3CCCN(Cc4ccc5[nH]ccc5c4)C3)n2)nc1 (stereo not drawn) [CBK286093]  85.3%
5. Cc1nn(C)cc1S(=O)(=O)NCC1(c2ccccc2)CCCC1 [CBK282766]  85.9%
6. Cc1ccc(N2C(=O)c3ccc(S(=O)(=O)c4cccc(C(=O)O)c4)cc3C2=O)c(C)c1 [CBK262783]  86.2%
7. Cn1c(CO)nnc1[C@H]1C[C@@H](NC(=O)CCc2ccc(F)cc2F)C1 [CBK306796]  86.4%
8. Cc1nn(C)c(C)c1CN(C(=O)C(C)Oc1ccccc1F)C1CC1 (stereo not drawn) [CBK281480]  86.6%
9. COc1ccc(-c2cnc3[nH]c(=O)n(C4CC4)c3n2)cc1 [CBK064907]  86.9%
10. Cc1csc2c(C3CCCN(C(=O)C4CC4)C3)nc(C)n12 (stereo not drawn) [CBK285212]  87.1%
11. O=C(CCS(=O)(=O)c1ccccc1)Nc1c(F)cc(F)cc1OC1CCNCC1 [CBK050226T]  87.4%
12. Cc1cccnc1NC(=O)c1cccc(C(=O)Nc2ncccc2C)c1 [CBK262184]  88.6%
13. Nc1cc(N)nc(SCC(=O)Nc2nonc2N)n1 [CBK267522]  89.1%
14. O=C(O)CC(Cc1ccc(Cl)cc1)C(=O)NCc1ccccc1 (stereo not drawn) [CBK286984]  89.4%
15. COc1ccc(/C=C(/C(=O)NCc2ccc(Cl)cc2Cl)c2ccccc2)cc1 [CBK265256]  89.9%
16. NC(=O)c1ccc(NC(=O)c2sc3ccccc3c2Cl)cc1 [CBK262643]  90.8%
17. Cc1cc2cc3n(c2nn1)N=C(Cl)CC3 [CBK019458]  91.4%
18. CC(C)(C)COC(=O)N1CCC2(CC1)CC(=O)N(Cc1ccc(S(C)(=O)=O)cc1)C2=O [CBK155949]  91.4%
19. CC(C)(C)C1=CC2=NC3(CCS(=O)(=O)CC3)[C@@H]3C[C@@H](O)[C@@H](O)[C@@H]3N2O1 [CBK303247]  92%
20. C[C@@H](Cn1nc2c(cc1=O)CCCC2)NC(=O)c1ccccc1F [CBK284560]  92.5%
21. COc1ccccc1NC(=O)N1C[C@@H]2C[C@H](C1)c1c(-c3cccc(C#N)c3)ccc(=O)n1C2 [CBK289197]  92.8%
22. CC(C)(C)C(=O)N1CCC(n2nc(-c3cccs3)ccc2=O)CC1 [CBK284182]  92.9%
23. CCCn1cnc2cc(NC(=O)Cn3cccc(C(=O)NC4CCCCC4)c3=O)ccc21 [CBK286075]  93%
24. CCN(CC)C(=O)/C=C/c1ccc(C(C)C)cc1 [CBK149636]  93.1%
25. O=C(CCc1ccc(O)c(O)c1)NNC(=S)Nc1ccccc1C(F)(F)F [CBK267104]  94.2%
26. CN(CC1CCCOC1)C(=O)c1ncsc1Nc1ccccc1 (stereo not drawn) [CBK304250]  94.4%
27. COc1cc(CN2CCN(Cc3cccc([N+](=O)[O-])c3)CC2)cc(OC)c1 [CBK263156]  95%
28. C#CCNC(=O)C1CCN(c2nc3ccccc3n2CC=C)CC1 [CBK283925]  95.4%
29. Cc1nc2ccc(C(=O)N3CCC(O)(c4ccccc4C)CC3)cc2[nH]1 [CBK283300]  95.8%
30. COc1ccc(CN2CC=C(c3ccc(F)cc3)CC2)cc1OCc1ccccc1 [CBK261853]  96.1%
31. CC(C)(C)c1nnc([C@H]2CCN(C(=O)CCC(=O)O)C2)o1 [CBK289406]  96.1%
32. CC(C)C(=O)Nc1cc2cccnc2nc1-c1ccc2c(c1)OCCCO2 [CBK073658]  96.3%
33. O=C1CCN(Cc2ccccc2)CCN1Cc1cccc(F)c1 [CBK284466]  96.4%
34. c1ccc2c(c1)CCC(Oc1cncc(N3CCNCC3)n1)C2 (stereo not drawn) [CBK172295G]  97%
35. N#Cc1cccc(C(=O)N2CCC3(CCN(C(=O)c4cc(F)c(F)cc4F)C3)C2)c1 (stereo not drawn) [CBK131387]  97.2%
36. Cc1ccn2cc(CNC(=O)CCC(C)N3CCN(C)CC3)nc2c1 (stereo not drawn) [CBK306628]  97.2%
37. O=C(O)CCn1c2ccccc2c2cc(I)ccc21 [CBK262578]  97.5%
38. CCC1CCCCN1Cc1c(O)ccc2c(=O)c(Oc3ccc(OC)cc3)c(C(F)(F)F)oc12 (stereo not drawn) [CBK263727]  98.8%
39. COc1cc(-c2cncc(NCc3ccncc3)n2)cc(OC)c1OC [CBK065263]  98.9%
40. O=C(CNC1Cc2ccccc2C1)Nc1ccc(Cl)cc1C(=O)c1ccccc1Cl [CBK074764]  100%
41. O=C(O)CCCn1c(-c2cccc([N+](=O)[O-])c2)nc(=S)c2c1CCCC2 [CBK265657]  101%
42. Cc1cc(C)n(CCCC(=O)N2C[C@H]3CCc4c[nH]nc4[C@H]3C2)n1 [CBK284573]  101%
43. Cc1ccccc1C(=O)NCC(=O)Nc1ccc(Cl)nc1 [CBK091335]  103%
44. Cc1cc(NC(=O)c2ccc3c(c2)OCCO3)c2ccccc2n1 [CBK122739]  103%
45. COc1cc(/C=N/N=C(/Nc2ccc(C)cc2)c2nc3ccccc3s2)ccc1O [CBK265029]  103%
46. CCn1nnc(C2=CCCN(C)C2)n1 [CBK034628E]  104%
47. CC(=O)Nc1cccc(-c2ccc(N3CCN(CCN(C)C)CC3)nc2)c1 [CBK036857]  104%
48. Fc1ccc(-c2cccc(N3CCN(c4ccccn4)CC3)n2)cc1Cl [CBK036877]  104%
49. NC(=O)c1cc(-c2ccccc2)sc1NC(=O)C(Cc1ccccc1)N1C(=O)c2ccccc2C1=O (stereo not drawn) [CBK265843]  104%
50. COc1ccc(C(=O)NCC(O)CN2CCOCC2)cc1[N+](=O)[O-] (stereo not drawn) [CBK265643]  105%
51. CC(Nc1ncnc2c1cnn2C)c1ccccc1 (stereo not drawn) [CBK288093]  106%
52. Oc1cccc(Sc2cncc(N3CCCC3)n2)c1 [CBK093796]  106%
53. CCN1CC2(CCN(Cc3cccc(-c4ccccn4)c3)CC2)CC1=O [CBK307399]  107%
54. COc1ccccc1NC(=O)C(=O)NCCc1c[nH]c2ccccc12 [CBK266672]  108%
55. COc1ccc(-c2nn(CCC(=O)O)cc2/C=C2\SC(=S)NC2=O)cc1OC [CBK265318]  108%
56. CCCNc1cncc(-c2cccc(O)c2)n1 [CBK065447]  109%
57. CCCCCOc1ccc(Nc2ccc(-c3cccnc3)cn2)cc1 [CBK036948]  109%
58. CS(=O)(=O)c1ccc(-c2cnc(N)c(NC3CCC(O)CC3)n2)cc1 (stereo not drawn) [CBK063865]  110%
59. Cc1cc(OCC(=O)Nc2ccc(S(=O)(=O)N3CCOCC3)cc2)ccc1[N+](=O)[O-] [CBK268114]  113%
60. O=C(CSc1cccc2ccccc12)Nc1ccc([N+](=O)[O-])cc1O [CBK268696]  115%
61. COc1cc(CNC2CCCCC2)cc(I)c1OCC(N)=O [CBK269158C]  117%
62. Cc1cnc(CNS(=O)(=O)c2ccc(C(C)C)cc2)cn1 [CBK044615]  118%

same assay, conditions: human, hela cells, % viability, bulk resorufin, single well

Work on `CCOC(=O)C1(c2ccccc2)CCN(C(=O)c2ccc3nc[nH]c3c2)CC1` [CBK132208] yielded a viability at 28.5 h, 10 µM of 103%.
